In US11571433B2, “Methods for treating memory impairment and cognitive dysfunction” (CARMEL HAIFA […] CORPORATION LTD., priority 2018, dated 2023):

How the values were obtained:
[1] = test system: AS model mice; experiment: Morris water maze; type: in vivo, mouse; conditions: chronic MBG infusion
Description: (§1) Drug handling: Marinobufagenin was kept in stock solution (1 mg/10 ml) in 0.5% DMSO and was freshly diluted to the required concentration 0.042 mg/mL by saline prior to the experiment. At this stock concentration a volume of 100 μL for 16 days in a rate of 0.25 μL/hour correlated to approximately 10 μg/kg/day for a mouse of 25 grams. The exact concentration was calculated for each mouse according to its body weight. As a vehicle 1:200 stock solution of DMSO in water (the maximal concentration of DMSO matched to the maximal dose of MBG, i.e. 10 μg/kg/day) was used. For delivery via osmotic pumps only mice that weigh more than 20 g were used. For LTP studies, marinobufagenin was kept at 100 mM stock solution in DMSO and was freshly dissolved in 1:100,000 carboxygenated artificial cerebrospinal fluid to the final concentration of 1 μM. For chronic injections Alzet osmotic pumps filled with marinobufagenin were used as described (Elkareh et al., 2007; Fedorova et al., 2009; Kennedy et al., 2006; Liu et al., 2012; Yoshika et al., 2007).
Morris water maze: MWM experiments were performed as previously described (Kaphzan et al., 2013). […] The animals' trajectories, escape latencies, number of previous platform position crossing, time spent in each quadrant, and swim speed were recorded with a computerized video-tracking system (Noldus EthoVision).

[2] = test system: CA1 pyramidal cells; experiment: Whole cell recordings of resting membrane potential of CA1 pyramidal cells in hippocampal slices; type: cell-based; conditions: MBG 10 μM, 10 min incubation; AS mouse vs WT littermate; P=0.07
Description: The effect of a1-NaKA inhibition with MBG 10 μM on the resting membrane potential was tested (FIG. 2). Hippocampal slices were incubated for 10 min with MBG 10 μM. Whole cell recordings of CA1 pyramidal cells show a larger effect on the resting membrane potential of AS mouse compared to a WT littermate. WT 1 mouse, cells n=4. AS: 1 mouse cells n=5. P=0.07 for the interaction in 2 way RM-ANOVA.

[3] = molecular target: T1, a1-NaKA (Mus musculus, UniProt Q8VDN2); experiment: Inhibition of a1-NaKA; conditions: 0.5 μM MBG
T1 construct: Hippocampal slices from WT and AS mice were stimulated; from tissue; host or cells: mouse hippocampal slices (WT and Angelman syndrome model mice)

[4] = test system: AS model mice; experiment: Contextual fear conditioning; type: in vivo, mouse; conditions: IP infusion 10 μg/kg/day by osmotic pump, started 2 weeks before conditioning, tested 24 hours after training
Description: as §1
Contextual fear conditioning: Mice were placed into a standard conditioning chamber and given a two-sec scrambled foot shock (0.75 mA) twice, two minutes and four minutes after session onset. […] The occurrence of freezing was measured every 10 seconds throughout training. […] The occurrence of freezing was measured every 10 sec throughout testing. […]

[5] = test system: Hippocampal slices from AS mice; experiment: High frequency stimulation LTP (fEPSP slope) in area CA1 of hippocampal slices; type: cell-based, mouse; conditions: for LTP deficit after high frequency stimulation: AS mice hippocampal slices, MBG 0.5 μM 20 min before, during and 20 min after tetanization, vs vehicle
Description: Electrophysiology: Hippocampal slices were prepared from wild-type and AS model mice as previously described (Kaphzan et al., 2012; Kaphzan et al., 2013). LTP was induced in area CA1 with high frequency stimulation (HFS) by delivering two 100 Hz trains of HFS with an intertrain interval of 20 sec. The initial slope of the field excitatory postsynaptic potential (fEPSP) for each experiment was expressed as the ratio to the average baseline response prior to delivery of HFS.
as §1
Hippocampal slices from WT and AS mice were stimulated with a single train of high frequency stimulation (1 sec 100 Hz-indicated by an arrow). Some of the AS slices were treated with either vehicle or MBG 0.5 μM 20 min before, during and 20 min after tetanization. WT vehicle: mice n=3, slices n=6; AS vehicle: mice n=2, slices n=4; AS MBG: mice n=2, slices n=4. P<0.05 for interaction of time and treatment in 2-way RM-ANOVA. Sample traces 1-baseline, 2-20 min after HFS.

Question: How did the “visuospatial memory in the Morris water maze” value [1] turn out when C[C@]12CC[C@H](O)C[C@@]1(O)CC[C@@H]1[C@@H]2CC[C@]2(C)[C@@H](c3ccc(=O)oc3)C[C@H]3O[C@]132 [MBG, 3-beta,5-dihydroxy-14,15-beta-epoxy-5-beta-bufa-20,22-dienolide] was run?
Answer: The value was “impairment is corrected”.

Question: What about the “effect on resting membrane potential” value [2] of the same molecule?
Answer: The value was “larger effect in AS mice than in wild-type littermates”.

Question: What about the “Inhibition of a1-NaKA” value [3] of the same molecule?
Answer: Its value is “partial and mild”.

Question: And the contextual fear memory [4]?
Answer: The contextual fear memory was “corrects impaired contextual fear memory”.

Question: And the HFS-LTP impairment ([5]; AS hippocampal slices incubated with MBG 1 μM)?
Answer: Its HFS-LTP impairment is “rescue of the impaired LTP phenotype”.

Question: And the “LTP deficit after high frequency stimulation” value [5]?
Answer: Its value is “induced a recovery of LTP deficit”.

Question: And the “LTP deficit after high frequency stimulation” value ([5]; listed as marinobufagenin)?
Answer: The value was “correction of long-term potentiation defects”.

Question: And the baseline synaptic transmission ([5]; hippocampal slices incubated with MBG 1 μM)?
Answer: Its baseline synaptic transmission is “no effect on baseline synaptic transmission”.

Question: And the baseline synaptic transmission ([5]; hippocampal slices, MBG 0.5 μM)?
Answer: The baseline synaptic transmission was “did not affect baseline synaptic transmission”.
